Test in all cases: cell-based
The target in assay [1] is T1, TRESK (Homo sapiens, UniProt Q7Z418).
T1 sequence (Q7Z418 1-384): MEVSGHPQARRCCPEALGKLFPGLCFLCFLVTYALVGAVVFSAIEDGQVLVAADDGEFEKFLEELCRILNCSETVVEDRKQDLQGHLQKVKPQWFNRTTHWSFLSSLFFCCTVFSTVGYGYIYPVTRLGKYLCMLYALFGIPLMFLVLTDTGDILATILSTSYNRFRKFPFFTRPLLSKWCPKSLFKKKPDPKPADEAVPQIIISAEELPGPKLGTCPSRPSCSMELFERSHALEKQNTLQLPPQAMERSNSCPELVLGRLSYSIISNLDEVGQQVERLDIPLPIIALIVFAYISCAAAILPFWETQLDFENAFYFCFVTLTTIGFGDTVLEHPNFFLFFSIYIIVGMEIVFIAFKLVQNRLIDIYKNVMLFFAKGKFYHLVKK

The target of assay [2] is T2, Kir3.1/3.4 (Homo sapiens, UniProt P48544+P48549).
T2 sequence (P48544 1-419): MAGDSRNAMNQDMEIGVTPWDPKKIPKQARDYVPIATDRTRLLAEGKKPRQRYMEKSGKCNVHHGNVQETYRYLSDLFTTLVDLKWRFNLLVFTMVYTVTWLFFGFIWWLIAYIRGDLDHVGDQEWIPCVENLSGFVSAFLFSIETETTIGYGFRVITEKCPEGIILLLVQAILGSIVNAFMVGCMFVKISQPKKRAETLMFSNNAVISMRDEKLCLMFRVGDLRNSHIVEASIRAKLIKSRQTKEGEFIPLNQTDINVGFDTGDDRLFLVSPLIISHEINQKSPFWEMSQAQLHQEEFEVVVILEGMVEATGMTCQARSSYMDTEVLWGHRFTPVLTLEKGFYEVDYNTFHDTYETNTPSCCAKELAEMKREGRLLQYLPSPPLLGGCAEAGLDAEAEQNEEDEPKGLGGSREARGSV
T2 sequence (P48549 1-501): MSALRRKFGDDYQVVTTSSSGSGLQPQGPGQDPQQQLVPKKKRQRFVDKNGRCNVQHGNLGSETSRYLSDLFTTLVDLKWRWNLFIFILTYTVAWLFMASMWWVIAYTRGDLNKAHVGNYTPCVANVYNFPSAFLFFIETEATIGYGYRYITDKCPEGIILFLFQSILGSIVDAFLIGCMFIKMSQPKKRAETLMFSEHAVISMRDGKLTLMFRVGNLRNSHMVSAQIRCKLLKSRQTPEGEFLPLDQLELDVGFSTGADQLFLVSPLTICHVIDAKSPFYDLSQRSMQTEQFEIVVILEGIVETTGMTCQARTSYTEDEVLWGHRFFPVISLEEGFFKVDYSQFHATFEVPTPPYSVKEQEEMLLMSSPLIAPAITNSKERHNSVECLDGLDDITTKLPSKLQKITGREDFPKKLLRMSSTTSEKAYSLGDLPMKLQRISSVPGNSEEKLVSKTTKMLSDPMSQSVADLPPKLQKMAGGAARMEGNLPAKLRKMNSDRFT

For assay [3], the target named is TRPA1 (Homo sapiens, UniProt O75762).
Chain of TRPA1 (O75762 whole entry): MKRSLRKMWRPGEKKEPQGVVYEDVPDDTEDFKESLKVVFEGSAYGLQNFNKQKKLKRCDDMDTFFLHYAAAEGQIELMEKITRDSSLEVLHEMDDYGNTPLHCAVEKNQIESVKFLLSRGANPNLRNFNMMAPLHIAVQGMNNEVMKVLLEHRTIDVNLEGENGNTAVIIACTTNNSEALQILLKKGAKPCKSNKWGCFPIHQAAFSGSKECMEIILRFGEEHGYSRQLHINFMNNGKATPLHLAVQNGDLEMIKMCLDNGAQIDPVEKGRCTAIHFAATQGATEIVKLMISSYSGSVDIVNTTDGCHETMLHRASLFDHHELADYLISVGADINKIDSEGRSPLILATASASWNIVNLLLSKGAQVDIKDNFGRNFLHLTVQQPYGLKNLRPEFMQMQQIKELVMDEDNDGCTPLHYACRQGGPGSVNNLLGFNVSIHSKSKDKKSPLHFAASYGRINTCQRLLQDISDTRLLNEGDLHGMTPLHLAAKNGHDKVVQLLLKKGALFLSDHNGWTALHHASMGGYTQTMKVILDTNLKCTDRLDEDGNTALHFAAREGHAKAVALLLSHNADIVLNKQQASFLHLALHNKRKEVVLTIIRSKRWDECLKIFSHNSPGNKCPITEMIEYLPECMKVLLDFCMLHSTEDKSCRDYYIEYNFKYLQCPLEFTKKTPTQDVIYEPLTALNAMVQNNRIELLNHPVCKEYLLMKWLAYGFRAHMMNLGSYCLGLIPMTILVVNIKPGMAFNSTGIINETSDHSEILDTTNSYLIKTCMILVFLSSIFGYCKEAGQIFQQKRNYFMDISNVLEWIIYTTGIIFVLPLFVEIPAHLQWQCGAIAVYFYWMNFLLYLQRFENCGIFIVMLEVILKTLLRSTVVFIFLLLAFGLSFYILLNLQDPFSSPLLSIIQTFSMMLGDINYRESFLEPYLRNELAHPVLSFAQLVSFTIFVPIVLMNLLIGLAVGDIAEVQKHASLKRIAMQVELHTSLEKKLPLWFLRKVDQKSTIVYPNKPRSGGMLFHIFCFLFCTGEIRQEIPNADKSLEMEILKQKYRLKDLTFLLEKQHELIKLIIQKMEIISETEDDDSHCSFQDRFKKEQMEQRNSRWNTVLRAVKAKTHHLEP
Assay [4] deals with TRPV4 (Homo sapiens, UniProt Q9HBA0).
Chain of TRPV4 (Q9HBA0 whole entry): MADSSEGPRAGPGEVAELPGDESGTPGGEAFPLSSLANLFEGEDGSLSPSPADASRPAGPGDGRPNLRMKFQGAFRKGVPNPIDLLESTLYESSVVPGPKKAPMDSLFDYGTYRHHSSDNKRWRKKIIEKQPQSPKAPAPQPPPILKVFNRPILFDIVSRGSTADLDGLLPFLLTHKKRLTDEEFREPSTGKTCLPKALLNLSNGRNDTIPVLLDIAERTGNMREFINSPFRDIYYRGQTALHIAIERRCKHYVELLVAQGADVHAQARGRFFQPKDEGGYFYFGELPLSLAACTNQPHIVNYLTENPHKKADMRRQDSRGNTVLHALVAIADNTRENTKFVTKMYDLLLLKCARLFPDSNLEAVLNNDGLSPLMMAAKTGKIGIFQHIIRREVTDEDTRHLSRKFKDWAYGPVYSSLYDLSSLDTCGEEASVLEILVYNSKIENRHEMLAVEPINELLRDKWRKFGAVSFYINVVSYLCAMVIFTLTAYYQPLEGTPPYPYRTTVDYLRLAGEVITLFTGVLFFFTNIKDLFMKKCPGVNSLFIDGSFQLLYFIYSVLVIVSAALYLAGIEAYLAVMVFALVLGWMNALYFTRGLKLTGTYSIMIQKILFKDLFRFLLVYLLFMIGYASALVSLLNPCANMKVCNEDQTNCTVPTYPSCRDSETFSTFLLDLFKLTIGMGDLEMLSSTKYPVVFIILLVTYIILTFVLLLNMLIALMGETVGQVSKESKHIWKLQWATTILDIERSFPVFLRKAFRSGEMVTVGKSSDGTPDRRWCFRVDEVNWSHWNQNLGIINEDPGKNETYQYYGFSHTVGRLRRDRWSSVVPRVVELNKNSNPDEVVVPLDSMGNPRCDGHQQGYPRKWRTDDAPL
Assay [5] has as its target T3, TRPC5 (Homo sapiens, UniProt Q9UL62).
T3 sequence (Q9UL62 1-973): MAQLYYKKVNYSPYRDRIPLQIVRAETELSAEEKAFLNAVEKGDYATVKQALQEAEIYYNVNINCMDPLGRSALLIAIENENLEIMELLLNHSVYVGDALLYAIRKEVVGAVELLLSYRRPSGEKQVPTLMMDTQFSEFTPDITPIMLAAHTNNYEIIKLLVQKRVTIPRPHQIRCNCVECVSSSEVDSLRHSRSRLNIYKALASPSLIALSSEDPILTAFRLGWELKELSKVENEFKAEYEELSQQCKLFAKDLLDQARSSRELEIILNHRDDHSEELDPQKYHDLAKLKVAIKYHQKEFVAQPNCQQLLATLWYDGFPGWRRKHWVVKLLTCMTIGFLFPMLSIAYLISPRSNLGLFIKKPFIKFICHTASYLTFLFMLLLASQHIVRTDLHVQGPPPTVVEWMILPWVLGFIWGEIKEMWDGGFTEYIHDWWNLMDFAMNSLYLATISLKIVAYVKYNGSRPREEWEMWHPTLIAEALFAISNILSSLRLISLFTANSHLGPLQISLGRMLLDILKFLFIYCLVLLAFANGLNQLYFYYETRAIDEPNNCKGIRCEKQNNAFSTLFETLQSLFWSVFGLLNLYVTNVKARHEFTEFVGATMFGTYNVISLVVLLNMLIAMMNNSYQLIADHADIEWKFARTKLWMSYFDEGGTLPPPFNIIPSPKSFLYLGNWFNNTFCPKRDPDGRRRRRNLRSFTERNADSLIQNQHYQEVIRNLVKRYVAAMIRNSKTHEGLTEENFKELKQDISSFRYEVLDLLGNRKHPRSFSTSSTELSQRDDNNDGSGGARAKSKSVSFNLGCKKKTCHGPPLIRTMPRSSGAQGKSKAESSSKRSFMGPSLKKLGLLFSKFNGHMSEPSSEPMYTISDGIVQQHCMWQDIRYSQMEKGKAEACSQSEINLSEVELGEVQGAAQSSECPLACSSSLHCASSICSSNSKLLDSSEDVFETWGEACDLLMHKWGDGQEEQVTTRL

Assay [6] deals with Kv1.5 (Homo sapiens, UniProt P22460).
Chain of Kv1.5 (P22460 whole entry): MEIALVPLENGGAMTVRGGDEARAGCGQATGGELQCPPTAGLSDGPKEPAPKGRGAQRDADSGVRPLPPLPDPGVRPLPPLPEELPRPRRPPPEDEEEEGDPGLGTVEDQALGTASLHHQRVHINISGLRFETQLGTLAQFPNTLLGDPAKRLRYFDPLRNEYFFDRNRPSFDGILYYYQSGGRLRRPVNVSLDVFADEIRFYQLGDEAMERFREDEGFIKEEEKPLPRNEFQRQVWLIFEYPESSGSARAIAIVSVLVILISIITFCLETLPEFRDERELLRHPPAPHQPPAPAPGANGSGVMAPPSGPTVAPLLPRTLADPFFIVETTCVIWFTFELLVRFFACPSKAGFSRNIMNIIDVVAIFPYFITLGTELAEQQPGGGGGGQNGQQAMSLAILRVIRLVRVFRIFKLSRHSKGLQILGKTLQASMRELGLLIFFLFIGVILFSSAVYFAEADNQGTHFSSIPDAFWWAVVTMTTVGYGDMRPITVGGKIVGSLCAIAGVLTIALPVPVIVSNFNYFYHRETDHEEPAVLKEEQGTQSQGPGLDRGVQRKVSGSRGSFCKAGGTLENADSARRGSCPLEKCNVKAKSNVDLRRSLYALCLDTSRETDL
For assay [7], the target named is KCNQ1 (Homo sapiens, UniProt P51787).
Chain of KCNQ1 (P51787 whole entry): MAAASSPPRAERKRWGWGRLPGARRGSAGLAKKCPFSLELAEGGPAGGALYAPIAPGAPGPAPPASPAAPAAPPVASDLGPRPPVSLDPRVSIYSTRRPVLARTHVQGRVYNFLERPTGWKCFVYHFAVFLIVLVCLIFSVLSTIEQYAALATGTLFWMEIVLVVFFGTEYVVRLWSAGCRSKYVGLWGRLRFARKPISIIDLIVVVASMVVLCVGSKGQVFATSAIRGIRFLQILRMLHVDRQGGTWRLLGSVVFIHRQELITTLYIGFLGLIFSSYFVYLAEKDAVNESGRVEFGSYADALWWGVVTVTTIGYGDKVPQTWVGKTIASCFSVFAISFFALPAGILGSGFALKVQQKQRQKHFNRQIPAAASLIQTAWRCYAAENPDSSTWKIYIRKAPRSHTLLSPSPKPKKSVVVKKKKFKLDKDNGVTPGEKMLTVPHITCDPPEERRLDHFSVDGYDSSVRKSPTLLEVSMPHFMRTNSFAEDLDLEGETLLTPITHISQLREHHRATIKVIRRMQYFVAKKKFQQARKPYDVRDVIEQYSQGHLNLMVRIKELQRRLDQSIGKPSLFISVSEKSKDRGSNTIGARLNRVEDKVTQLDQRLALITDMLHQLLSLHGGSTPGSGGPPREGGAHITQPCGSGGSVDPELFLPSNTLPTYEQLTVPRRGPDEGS

A word on the IC50: it is the concentration that gives 50% inhibition. Low values mean inhibition by little substance, high ones a need for much substance. In the case of `O=C(c1ccccc1F)N1CCN(Cc2c(-c3ccc(Br)cc3)nc3ccccn23)CC1` [BAY 1000493, (4-{[2-(4-bromophenyl)imidazo[1,2-a]pyridin-3-yl]methyl}vpiperazin-1-yl)(2-fluorophenyl)methanone], the IC50 in assay [1] is greater than 30 µM; in assay [2] it was greater than 30 µM; in assay [3], greater than 30 µM; in assay [4], greater than 30 µM; in assay [5], greater than 30 µM; in assay [6], 19 µM. In assay [7], the IC50 was greater than 30 µM.

The values above are taken from article doi:10.1101/706168v1 (biorxiv, 2019).
